# Laboratory results as given in patent US11708330B2, “Compounds, compositions, methods for treating diseases, and methods for preparing compounds” (UNIVERSITY OF LOUISVILLE RESEARCH FOUNDATION, INC., priority 2017, dated 2023).
# Tests used:
# cancer cells [1] = experiment: Intracellular fructose-2,6-bisphosphate (F26BP) in cells; format: cell-based; conditions: increasing concentrations; two independently run experiments (FIG. 3A, 3B)
# Protocol: The ability of Formula (I) to inhibit the activity of the PFKFB4 enzyme in cells was measured by examining the effect of the inhibitor on the levels of the product of the PFKFB4 enzyme, fructose-2,6-bisphosphate (F26BP). […] Data in FIG. 3 are shown as the concentration of intracellular F26BP normalized to cellular protein concentration.
# In order to measure F26BP, cells were exposed to increasing concentrations of Formula (I) and were harvested, washed with PBS, lysed in NaOH/Tris acetate by heating at 80° C. and lysates neutralized to pH 7.2. F26BP content was measured using a coupled enzyme reaction following the method of Van Schaftingen (VAN SCHAFTINGEN et al, “A kinetic study of pyrophosphate: fructose-6-phosphate phosphotransferase from potato tubers. Application to a microassay of fructose 2,6-bisphosphate” Eur J Biochem. (1982) Vol. 129, No. 1, pp. 191-195), which is herein incorporated by reference in its entirety. The F26BP concentration was normalized to total cellular protein measured by the bicinchoninic acid assay (BCA, Thermo Scientific).
# [2] = molecular target: recombinant human PFKFB4 protein (Homo sapiens, UniProt Q16877); experiment: ADP-Glo kinase assay of recombinant PFKFB4; format: biochemical; conditions: decrease in luminescence relative to DMSO (FIG. 1)
# Sequence of recombinant human PFKFB4 protein (Q16877 whole entry): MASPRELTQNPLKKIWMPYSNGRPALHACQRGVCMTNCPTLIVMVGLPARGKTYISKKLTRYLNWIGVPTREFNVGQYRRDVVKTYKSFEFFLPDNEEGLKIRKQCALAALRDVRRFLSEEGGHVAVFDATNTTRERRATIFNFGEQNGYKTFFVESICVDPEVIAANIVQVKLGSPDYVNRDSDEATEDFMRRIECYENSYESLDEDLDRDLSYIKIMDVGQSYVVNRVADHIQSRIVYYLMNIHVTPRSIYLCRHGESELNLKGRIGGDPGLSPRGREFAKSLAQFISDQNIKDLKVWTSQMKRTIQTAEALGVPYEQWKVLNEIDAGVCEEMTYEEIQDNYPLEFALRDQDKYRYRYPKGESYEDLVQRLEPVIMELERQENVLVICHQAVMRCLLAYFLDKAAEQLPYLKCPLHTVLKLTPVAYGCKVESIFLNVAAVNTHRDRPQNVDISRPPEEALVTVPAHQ
# Protocol: The efficacy of the compound Formula (I) in inhibiting the activity of the PFKFB4 enzyme was tested by examination of the effect of Formula (I) on the kinase activity of recombinant PFKFB4 enzyme in the ADP-Glo assay.
# The efficacy of Formula (I) in inhibition of the kinase activity of the PFKFB4 enzyme was examined by exposing recombinant human PFKFB4 protein to Formula (I) in the ADP-Glo kinase assay (Promega) which measures ADP formed through a kinase reaction. Briefly, recombinant protein, ATP, substrate and Formula (I) were incubated together for the kinase reaction followed by the addition of ADP-Glo reagent, used to terminate the kinase reaction. Lastly, a kinase detection reagent was added to convert the newly formed ADP to ATP which was measured by a luciferase reaction. Data are shown in FIG. 1 as the decrease in luminescence caused by Formula (I) relative to DMSO. Decrease in Cell Proliferation by Formula (I) (Also Referred to as FBR1-12): […]
# human cancer cell lines = experiment: Cell proliferation, viable cell counts by Trypan blue exclusion; format: cell-based; conditions: increasing concentrations; cell counts relative to DMSO, representative counts at 48 hours (FIG. 2); compared with SMPN
# Protocol: The effect of increasing concentrations of Formula (I) on the proliferation of human cancer cells was examined in vitro. […] Data in FIG. 2 are shown as the decrease in cell counts relative to the DMSO (vehicle) control.
# Method: Cells were plated in 24 well plates and exposed to increasing concentrations of Formula (I). DMSO was used as a vehicle. After 24, 48 and 72 hours of exposure, cells were detached, and viable cells were counted by Trypan blue exclusion (representative counts at 48 hours shown).
# cancer cells [3] = experiment: Anchorage independent growth as colonies in soft agar; format: cell-based; conditions: increasing concentrations; compared with DMSO (FIG. 6)
# Protocol: We examined the ability of Formula (I) to inhibit the anchorage independent growth of cancer cells in vitro as colonies in soft agar. […] Representative images are shown in FIG. 6A, and colonies formed were enumerated. The number of colonies formed in the presence of Formula (I) was compared with those formed in the presence of the vehicle, DMSO (FIG. 6B).
# Cancer cells were plated in soft agar and the effects of increasing concentrations of Formula (I) on anchorage independent growth was examined Briefly, a feeder layer of 0.6% agarose (Agar Noble, Becton Dickinson) in RPMI with 10% fetal bovine serum was plated in 6 cm plates containing vehicle (DMSO) or increasing concentrations of Formula (I). 1×10^4 cells were re-suspended in 0.3% agarose in RPMI/10% serum containing DMSO or increasing concentrations of Formula (I) and plated on top of the feeder layer. Cells were allowed to grow at 37° C. in 5% CO2 and agarose-containing media with DMSO+/−Formula (I) was replenished every 5 days until colonies became visible. Colonies were stained with MTT [3-(4,5-dimethylthiazol-2-yl)-2,5-diphenyl tetrazolium bromide] and counted in four random 1 cm^2 areas per plate under 40× magnification and enumerated.
# cancer cells [4] = experiment: Glycolysis in cells, 3H2O production from 5-[3H]glucose; format: cell-based; conditions: two independently run experiments (FIG. 4A, 4B)
# From the text: The effect of Formula (I) on the glycolytic pathway was examined to determine the ability of this inhibitor to decrease glycolysis secondary to its effect on PFKFB4-driven F26BP production. PFKFB4 produces F26BP which activates a rate-limiting enzyme of the glycolytic pathway, […] (PFK-1). […] Data in FIG. 4A and FIG. 4B are shown as the production of ^3H2O by Formula (I) relative to DMSO and normalized to protein concentration.
# Method: To examine glycolysis, cells growing in 6-well plates were incubated in 500 μl of complete medium containing 1 μCi of […] per well for 60 min in 5% CO2 at 37° C. The medium was then collected and centrifuged to pellet any suspended cells. […] The amounts of ^3H2O that had diffused into the surrounding H2O was measured on a Tri-Carb 2910 liquid scintillation analyzer (Perkin Elmer) and compared with ^3H2O and 5-[^3H]glucose standards. Protein concentration was determined using the BCA assay and counts were normalized to protein concentration (previously described in CHESNEY et al., “Fructose-2,6-bisphosphate synthesis by 6-phosphofructo-2-kinase/fructose-2,6-bisphosphatase 4 (PFKFB4) is required for the glycolytic response to hypoxia and tumor growth” Oncotarget (2014) Vol. 5, No. 16, pp. 6670-6686, which is herein incorporated by reference in its entirety).
# cancer cells [5] = experiment: Intracellular ATP, bioluminescence assay; format: cell-based; conditions: two independently run experiments (FIG. 5A, 5B)
# Protocol: The effect of Formula (I) on the production of ATP was examined as a measure of its effect on energy production by the glycolytic pathway.
# To measure ATP, cells were washed (while still adherent) with cold PBS, lysed with Passive Lysis Buffer (Molecular Probes, Invitrogen) added directly to the plates, and immediately harvested by scraping. The lysates were flash frozen (to −80° C.) and thawed (to 37° C.) once to accomplish complete lysis and then centrifuged to clear the lysates. Intracellular ATP levels were determined using a bioluminescence assay (Molecular Probes), utilizing luciferase and its substrate, D-luciferin and ATP values were calculated using an ATP standard curve. The ATP concentration was normalized to protein concentration that was estimated using the BCA assay.
# [6] = test system: subcutaneous Lewis lung carcinoma tumors; experiment: Tumor glucose uptake in vivo by FDG-PET; set-up: species or system C57BL/6 mice; conditions: 40 mg/kg PO x1, PET 60 minutes after dose, versus vehicle (FIG. 9)
# Protocol: The efficacy of Formula (I) to decrease tumor glucose uptake was examined by positron emission tomography (PET) following ^18F-fluoro-2-deoxy-glucose (FDG) injection. […] Method: FDG-PET was conducted on tumor-bearing mice to determine acute effects of Formula (I) on glucose uptake. C57BL/6 mice (Charles River) with subcutaneous Lewis lung carcinoma tumors were injected intraperitoneally with 100 μCi of ^18F-fluoro-2-deoxy-glucose under isoflurane anesthesia and subjected to a 15-minute static scan 45 minutes after tracer injection at baseline. Twenty-four hours later, the same animals were administered vehicle (DMSO) or Formula (I) (in DMSO, 40 mg/kg, PO×1), and, after 60 minutes, FDG uptake determined by PET scan. Tumor/cerebellum ROI (regions of interest) were quantified, representative sagittal cuts from mice are shown with arrows showing the tumors on the animals. (* signifies statistical significance).
# [7] = test system: Lewis lung carcinoma cells; experiment: Tumor growth in vivo, syngeneic Lewis lung carcinoma model; set-up: species or system C57BL/6 mice; conditions: daily oral 40 mg/kg in DMSO, 9 days, established tumors ~150-200 mg (FIG. 8)
# From the text: The efficacy of Formula (I) in decreasing the growth of tumors in vivo was examined Mice were implanted with Lewis lung carcinoma cells and after tumors were noted, dosed daily with DMSO±Formula (I) by gavage and tumor growth followed. […] Data shown as mean±SEM for each timepoint. C57BL/6 mice (Charles River) were implanted with 1×10^6 Lewis lung carcinoma cells subcutaneously and, after tumors developed, were followed by caliper measurements daily to quantify tumor mass using the formula: tumor mass=(length×width^2)/2. When tumors were ˜150-200 mg, mice were randomized to daily oral DMSO±Formula (I) (n=10/group) at 40 mg/kg in 50 μL DMSO and tumor growth followed×9 days. (* signifies statistical significance)
smiles,measurement,setting,value
"COc1cccc2c(NCCCCCNC(=O)C(F)(F)F)ccnc12 [Formula (I), 2,2,2-trifluoro-N-(5-((8-methoxyquinolin-4-yl)amino)pentyl)acetamide]",intracellular F26BP normalized to cellular protein concentration,cancer cells [1],dose-dependent decrease in F26BP in cancer cells
same,kinase activity of the PFKFB4 enzyme,[2],inhibited the kinase activity of the PFKFB4 enzyme
same,proliferation of human cancer cell lines,human cancer cell lines,decreases the proliferation of human cancer cell lines in vitro with higher potency than SMPN
same,"anchorage independent growth, soft agar colonies",cancer cells [3],inhibited the growth of cancer cells as soft agar colonies
same,"glycolysis, production of 3H2O relative to DMSO normalized to protein concentration",cancer cells [4],dose-dependent decrease in glycolysis in cancer cells
same,production of ATP normalized to protein concentration,cancer cells [5],dose-dependent decrease in the production of ATP by cancer cells
same,tumor FDG uptake (tumor/cerebellum ROI),[6],caused a decrease in tumor FDG uptake compared with vehicle
same,tumor growth (tumor mass),[7],decreased established tumor growth in a syngeneic mouse tumor model
